Data from paper PMC10093605, “ABCB1 and ABCG2 Overexpression Mediates Resistance to the Phosphatidylinositol 3-Kinase Inhibitor HS-173 in Cancer Cell Lines” (Cells, 2023).

Tests used:
[1] = target: T1, ABCG2 (Homo sapiens, UniProt Q9UNQ0); test: vanadate-sensitive ATPase, endpoint Pi assay, membrane vesicles; type: biochemical; settings: read-out: concentration to produce half of the highest stimulation
T1 construct: membrane vesicles of ABCG2-overexpressing High Five insect cells; homodimer
T1 sequence (Q9UNQ0 1-655): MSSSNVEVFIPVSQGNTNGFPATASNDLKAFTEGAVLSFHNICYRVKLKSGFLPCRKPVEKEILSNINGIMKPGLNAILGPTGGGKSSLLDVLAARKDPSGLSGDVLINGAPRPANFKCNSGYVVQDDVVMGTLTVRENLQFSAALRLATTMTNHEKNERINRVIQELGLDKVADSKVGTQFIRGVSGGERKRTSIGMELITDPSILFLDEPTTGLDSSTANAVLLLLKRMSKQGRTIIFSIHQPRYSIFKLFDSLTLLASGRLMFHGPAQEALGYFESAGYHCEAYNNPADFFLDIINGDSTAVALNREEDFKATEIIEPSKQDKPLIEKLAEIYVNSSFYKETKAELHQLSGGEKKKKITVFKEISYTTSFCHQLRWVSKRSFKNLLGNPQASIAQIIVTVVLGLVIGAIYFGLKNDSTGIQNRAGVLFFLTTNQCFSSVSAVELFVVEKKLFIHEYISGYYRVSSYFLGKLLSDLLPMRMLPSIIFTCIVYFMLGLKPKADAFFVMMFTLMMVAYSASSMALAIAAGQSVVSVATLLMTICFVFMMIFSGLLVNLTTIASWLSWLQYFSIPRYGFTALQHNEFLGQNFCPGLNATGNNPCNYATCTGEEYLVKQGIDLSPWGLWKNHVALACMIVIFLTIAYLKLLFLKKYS
Excerpt: vanadate-sensitive ATPase, endpoint Pi assay, membrane vesicles on ABCG2 | ABCG2-mediated ATP hydrolysis was stimulated by HS-173 in a concentration-dependent manner

[2] = target: T2, ABCB1 (Homo sapiens, UniProt P08183); test: as above; type: biochemical; settings: read-out: concentration to produce half of the maximum stimulation
T2 construct: membrane vesicles of ABCB1-overexpressing High Five insect cells
Excerpt: vanadate-sensitive ATPase, endpoint Pi assay, membrane vesicles on ABCB1 | HS-173 stimulated the ATPase activity of ABCB1 in a concentration-dependent manner

T2 sequence (P08183 whole entry): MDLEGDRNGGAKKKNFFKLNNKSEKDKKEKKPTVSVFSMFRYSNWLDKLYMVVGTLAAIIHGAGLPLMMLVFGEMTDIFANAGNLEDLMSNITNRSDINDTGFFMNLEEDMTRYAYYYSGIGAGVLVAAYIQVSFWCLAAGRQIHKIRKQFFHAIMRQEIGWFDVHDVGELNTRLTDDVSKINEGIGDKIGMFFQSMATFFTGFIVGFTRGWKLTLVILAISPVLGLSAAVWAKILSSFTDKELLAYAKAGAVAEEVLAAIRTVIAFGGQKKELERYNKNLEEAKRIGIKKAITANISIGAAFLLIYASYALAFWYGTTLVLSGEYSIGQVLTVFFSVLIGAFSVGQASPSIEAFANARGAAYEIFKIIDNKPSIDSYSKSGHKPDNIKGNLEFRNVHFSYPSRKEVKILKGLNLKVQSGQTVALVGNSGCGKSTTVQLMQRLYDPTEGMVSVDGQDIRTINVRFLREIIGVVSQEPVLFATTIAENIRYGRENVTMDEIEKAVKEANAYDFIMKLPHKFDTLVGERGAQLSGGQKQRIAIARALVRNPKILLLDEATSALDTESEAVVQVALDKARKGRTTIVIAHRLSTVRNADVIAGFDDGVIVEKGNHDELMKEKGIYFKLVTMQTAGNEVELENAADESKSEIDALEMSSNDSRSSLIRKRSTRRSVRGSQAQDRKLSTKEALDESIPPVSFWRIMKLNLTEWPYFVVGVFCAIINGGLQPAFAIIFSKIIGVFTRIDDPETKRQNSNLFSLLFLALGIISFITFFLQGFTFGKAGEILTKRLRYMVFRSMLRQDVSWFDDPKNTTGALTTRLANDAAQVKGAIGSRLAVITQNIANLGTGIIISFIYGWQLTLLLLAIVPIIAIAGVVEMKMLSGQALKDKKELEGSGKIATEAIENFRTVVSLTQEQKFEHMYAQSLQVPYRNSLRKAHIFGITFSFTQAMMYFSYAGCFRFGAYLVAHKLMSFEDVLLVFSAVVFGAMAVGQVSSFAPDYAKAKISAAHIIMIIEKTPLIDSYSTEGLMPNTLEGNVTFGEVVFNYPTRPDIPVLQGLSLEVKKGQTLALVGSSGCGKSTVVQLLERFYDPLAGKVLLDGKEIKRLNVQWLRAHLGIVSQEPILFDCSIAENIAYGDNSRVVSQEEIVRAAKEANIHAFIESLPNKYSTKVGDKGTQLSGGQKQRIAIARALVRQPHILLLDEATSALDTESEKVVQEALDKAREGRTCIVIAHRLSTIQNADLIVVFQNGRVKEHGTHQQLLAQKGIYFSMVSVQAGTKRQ

- EC50 [1]: ~400 nM
- EC50 [2]: ~1700 nM
SMILES: CCOC(=O)c1cnc2ccc(-c3cncc(NS(=O)(=O)c4ccccc4)c3)cn12 [HS-173]
